Source: patent US20240051975A1 (TSINGHUA UNIVERSITY, priority 2020, published 2024)

These compounds were tested on cell death induced by the NAMPT inhibitor FK866 (assay: Protection against cell death induced by the NAMPT inhibitor FK866 (Celltiter-Glo, cellular ATP)). Conditions: AUC of dose-response curve (0.1-10 μM) relative to AUC of NAT; 10 nM FK866, 72 hours, cell viability by ATP.
Assay type: cell-based
Protocol: In the latter cell-based assay, we determined the degree of protection of NAT and derivatives thereof against the NAMPT inhibitor FK866. […] After 72 hours, Celltiter-Glo (Promega) was used to detect cellular ATP levels to reflect cell viability and normalized to the DMSO group. A dose-response curve was drawn to evaluate the cytoprotective activity of individual compounds against FK866. Then the area under the dose-response curve (AUC, area under curve) of each compound was calculated and compared with the AUC of NAT, so that the obtained relative value quantitatively expressed the cytoprotective activity of each compound.

Compound | Relative cytoprotective activity
CC(C)(C)c1ccccc1OCC(=O)Nc1ccc(O)cc1Cl [Compound 36, 2-(2-(tert-butyl)phenoxy)-N-(2-chloro-4-hydroxyphenyl)acetamide] | 0.06922
CC(C)c1ccccc1OCC(=O)Nc1ccc(O)cc1 [Compound 24, N-(4-hydroxyphenyl)-2-(2-isopropylphenoxy)acetamide] | 0.5447
Cc1cccc(OCC(=O)Nc2ccc(O)cc2)c1 [Compound 19, N-(4-hydroxyphenyl)-2-(m-tolyloxy)acetamide] | 0.09517
CC(C)(C)c1cccc(OCC(=O)NCc2ccc(O)cc2)c1 [Compound 22, 2-(3-(tert-butyl)phenoxy)-N-(4-hydroxybenzyl)acetamide] | 0.1187
CC(C)(C)c1ccc(OCC(=O)Nc2ccc(O)cc2)cc1 [Compound 14, 2-(4-(tert-butyl)phenoxy)-N-(4-hydroxyphenyl)acetamide] | 0.01994
CC(C)(C)c1cccc(OCC(=O)Nc2ccc(O)cc2)c1 [Compound 13, 2-(3-(tert-butyl)phenoxy)-N-(4-hydroxyphenyl)acetamide] | 0.2653
CC(C)(C)c1cccc(CNC(=O)Nc2ccc(O)cc2)c1 [Compound 20, 1-(3-tert-butyl)benzyl-3-(4-hydroxyl)phenylurea] | 0.135
CC(C)(C)c1ccccc1OCC(=O)Nc1ccc(O)c(F)c1 [Compound 41, 2-(2-(tert-butyl)phenoxy)-N-(3-fluoro-4-hydroxyphenyl)acetamide] | 0.9588
COc1ccc(OCC(=O)Nc2ccc(O)cc2)c(C(C)(C)C)c1 [Compound 51] | 1.402
O=C(COc1ccccc1)Nc1ccc(O)cc1 [Compound 16, N-(4-hydroxyphenyl)-2-phenoxyacetamide] | 0.1684
CC(C)(C)c1cccc(CO)c1OCC(=O)Nc1ccc(O)cc1 [Compound 58, 2-(2-(tert-butyl)-6-(hydroxymethyl)phenoxy)-N-(4-hydroxyphenyl)acetamide] | 0.8071
Cc1ccc(C(C)(C)C)c(OCC(=O)Nc2ccc(O)cc2)c1 [Compound 55, 2-(2-(tert-butyl)-5-methylphenoxy)-N-(4-hydroxyphenyl)acetamide] | 0.6623
CC(C)(C)c1ccccc1OCC(=O)Nc1ccccc1 [Compound 2, 2-(2-(tert-butyl)phenoxy)-N-phenylacetamide] | 0.02446
CC(C)(C)c1cc(O)ccc1OCC(=O)Nc1ccc(O)cc1 [Compound 52] | 1.358
Cc1cccc(C(C)(C)C)c1OCC(=O)Nc1ccc(O)cc1 [Compound 53, 2-(2-(tert-butyl)-6-methylphenoxy)-N-(4-hydroxyphenyl)acetamide] | 0.571
COC(=O)c1cccc(C(C)(C)C)c1OCC(=O)Nc1ccc(O)cc1 [Compound 65, 3-(tert-butyl)-2-(2-((4-hydroxyphenyl)amino)-2-oxoethoxy)methyl benzoate] | 0.1431
CC(C)(C)c1ccc(C(=O)O)cc1OCC(=O)Nc1ccc(O)cc1 [Compound 64] | 0.2131
O=C(COc1ccccc1C(F)(F)F)Nc1ccc(O)cc1 [Compound 23, N-(4-hydroxyphenyl)-2-(2-(trifluoromethyl)phenoxy)acetamide] | 0.2337
CC(C)(C)c1ccc(C(N)=O)cc1OCC(=O)Nc1ccc(O)cc1 [Compound 63] | 1.065
CC(C)(C)c1cc(Cl)ccc1OCC(=O)Nc1ccc(O)cc1 [Compound 57, 2-(2-(tert-butyl)-4-chlorophenoxy)-N-(4-hydroxyphenyl)acetamide] | 1.099

What follows are compounds tested against T1, NAMPT (Homo sapiens, UniProt P43490) (assay: NAMPT enzyme activity assay coupled with NMNAT1 and ADH (NADH fluorescence)). Conditions: not given.
T1 sequence (P43490 whole entry, species assumed): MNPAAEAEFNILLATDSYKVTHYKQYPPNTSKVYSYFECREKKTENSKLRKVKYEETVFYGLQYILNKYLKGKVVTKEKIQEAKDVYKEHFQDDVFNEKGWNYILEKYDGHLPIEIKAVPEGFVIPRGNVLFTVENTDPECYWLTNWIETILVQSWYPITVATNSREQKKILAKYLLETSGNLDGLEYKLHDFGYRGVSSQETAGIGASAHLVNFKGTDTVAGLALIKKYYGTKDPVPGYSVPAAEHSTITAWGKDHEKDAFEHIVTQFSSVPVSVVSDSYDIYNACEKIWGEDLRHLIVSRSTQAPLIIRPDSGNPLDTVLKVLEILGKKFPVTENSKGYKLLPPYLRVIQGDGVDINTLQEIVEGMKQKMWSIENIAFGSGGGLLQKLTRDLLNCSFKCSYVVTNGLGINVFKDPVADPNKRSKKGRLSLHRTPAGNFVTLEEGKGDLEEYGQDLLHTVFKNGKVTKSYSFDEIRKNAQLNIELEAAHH

Compound | NAMPT activation activity (in words)
CC(C)(C)c1ccccc1OCC(=O)Nc1ccccc1 [Compound 2, 2-(2-(tert-butyl)phenoxy)-N-phenylacetamide] | cannot activate NAMPT

Same assay, conditions: AUC of dose-response curve (0.1, 0.3, 1, 3, 10 μM) relative to AUC of NAT (NAT = 1); 1 μM NAMPT, 200 μM NAM

Compound | Relative activation of NAMPT activity
CC(C)(C)c1ccccc1OCC(=O)Nc1ccc(O)cc1Cl [Compound 36, 2-(2-(tert-butyl)phenoxy)-N-(2-chloro-4-hydroxyphenyl)acetamide] | 0.2583
CC(C)c1ccccc1OCC(=O)Nc1ccc(O)cc1 [Compound 24, N-(4-hydroxyphenyl)-2-(2-isopropylphenoxy)acetamide] | 1.35
Cc1cccc(OCC(=O)Nc2ccc(O)cc2)c1 [Compound 19, N-(4-hydroxyphenyl)-2-(m-tolyloxy)acetamide] | 0.1507
CC(C)(C)c1cccc(OCC(=O)NCc2ccc(O)cc2)c1 [Compound 22, 2-(3-(tert-butyl)phenoxy)-N-(4-hydroxybenzyl)acetamide] | −0.2162
CC(C)(C)c1ccc(OCC(=O)Nc2ccc(O)cc2)cc1 [Compound 14, 2-(4-(tert-butyl)phenoxy)-N-(4-hydroxyphenyl)acetamide] | −0.1236
CC(C)(C)c1cccc(OCC(=O)Nc2ccc(O)cc2)c1 [Compound 13, 2-(3-(tert-butyl)phenoxy)-N-(4-hydroxyphenyl)acetamide] | 0.2733
CC(C)(C)c1cccc(CNC(=O)Nc2ccc(O)cc2)c1 [Compound 20, 1-(3-tert-butyl)benzyl-3-(4-hydroxyl)phenylurea] | −0.1622
CC(C)(C)c1ccccc1OCC(=O)Nc1ccc(O)c(F)c1 [Compound 41, 2-(2-(tert-butyl)phenoxy)-N-(3-fluoro-4-hydroxyphenyl)acetamide] | 0.1348
COc1ccc(OCC(=O)Nc2ccc(O)cc2)c(C(C)(C)C)c1 [Compound 51] | 1.382
O=C(COc1ccccc1)Nc1ccc(O)cc1 [Compound 16, N-(4-hydroxyphenyl)-2-phenoxyacetamide] | 0.0971
CC(C)(C)c1cccc(CO)c1OCC(=O)Nc1ccc(O)cc1 [Compound 58, 2-(2-(tert-butyl)-6-(hydroxymethyl)phenoxy)-N-(4-hydroxyphenyl)acetamide] | 0.5159
Cc1ccc(C(C)(C)C)c(OCC(=O)Nc2ccc(O)cc2)c1 [Compound 55, 2-(2-(tert-butyl)-5-methylphenoxy)-N-(4-hydroxyphenyl)acetamide] | 0.1726
CC(C)(C)c1ccccc1OCC(=O)Nc1ccccc1 [Compound 2, 2-(2-(tert-butyl)phenoxy)-N-phenylacetamide] | −0.2247
CC(C)(C)c1cc(O)ccc1OCC(=O)Nc1ccc(O)cc1 [Compound 52] | 1.488
Cc1cccc(C(C)(C)C)c1OCC(=O)Nc1ccc(O)cc1 [Compound 53, 2-(2-(tert-butyl)-6-methylphenoxy)-N-(4-hydroxyphenyl)acetamide] | 0.327
COC(=O)c1cccc(C(C)(C)C)c1OCC(=O)Nc1ccc(O)cc1 [Compound 65, 3-(tert-butyl)-2-(2-((4-hydroxyphenyl)amino)-2-oxoethoxy)methyl benzoate] | 0.00292
CC(C)(C)c1ccc(C(=O)O)cc1OCC(=O)Nc1ccc(O)cc1 [Compound 64] | −0.0799
O=C(COc1ccccc1C(F)(F)F)Nc1ccc(O)cc1 [Compound 23, N-(4-hydroxyphenyl)-2-(2-(trifluoromethyl)phenoxy)acetamide] | 0.2389
CC(C)(C)c1ccc(C(N)=O)cc1OCC(=O)Nc1ccc(O)cc1 [Compound 63] | 2.041
CC(C)(C)c1cc(Cl)ccc1OCC(=O)Nc1ccc(O)cc1 [Compound 57, 2-(2-(tert-butyl)-4-chlorophenoxy)-N-(4-hydroxyphenyl)acetamide] | 0.3183

The compounds below were run against T1, NAMPT (assay: Isothermal calorimetric titration (ITC) binding to NAMPT). Conditions: not given.

Compound | binding to NAMPT (in words)
CC(C)(C)c1ccccc1OCC(=O)Nc1ccccc1 [Compound 2, 2-(2-(tert-butyl)phenoxy)-N-phenylacetamide] | cannot bind NAMPT
